Values after ≈ are worked out from the molar mass of the structure shown.
Conditions: buffer; pH 7.4; 200.0 µM

solubility kinetic	SMILES
0.6 µg/mL (≈ 2.17 µM)	COc1ccc(-c2csc3ncnc(Cl)c23)cc1
3.8 µg/mL (≈ 10.3 µM)	COc1cc(Nc2ccc(S(N)(=O)=O)cc2)c([N+](=O)[O-])nc1[N+](=O)[O-]
> 61.9 µg/mL	CC(C)[C@H](NC(=O)c1ccccc1)C(=O)OCC(=O)NCc1ccc2c(c1)OCO2
0.4 µg/mL (≈ 1.34 µM)	O=C(Nc1nc(-c2ccccc2)cs1)c1ccccc1F
> 38.9 µg/mL	N#Cc1ccccc1NC(=S)NC(=O)C1CCC1
43.7 µg/mL (≈ 146 µM)	O=C(O)CC(c1ccccc1F)N1Cc2ccccc2C1=O (centres undefined)
41.6 µg/mL (≈ 140 µM)	Cc1cccc(C(=O)NCCCNC(=O)c2cccnc2)c1
4 µg/mL (≈ 14.7 µM)	CCc1ccc(NC(=O)CCc2ccc(CC)o2)cc1
0.9 µg/mL (≈ 2.45 µM)	S=C(Nc1ccc(Cl)c(Cl)c1)N1CCN(c2ccccn2)CC1
> 42.1 µg/mL	CN(C(=O)CSc1cccc[n+]1[O-])C1CCCCC1
> 38.9 µg/mL	Cc1cc(C(=O)Nc2ccccc2C(=O)O)c(C)o1
> 44.6 µg/mL	O=C(O)c1ccn(COc2ccc(Br)cc2)n1
38.2 µg/mL (≈ 148 µM)	O=C(c1ccccc1)N1CCN(C(=O)C2CC2)CC1
> 38.6 µg/mL	Cc1ccc(NC(=O)c2cccnc2C(=O)O)nc1
> 53.5 µg/mL	O=C1CCCN1CCC1CCCCN1Cc1nc(-c2cnccn2)no1 (centres undefined)
< 0.7 µg/mL	O=C1/C(=C/c2cccc(O)c2)SC(=S)N1CC1CCCO1 (centres undefined)
> 49.9 µg/mL	CC1CCc2sc3ncnc(N4CCN(CCO)CC4)c3c2C1 (centres undefined)
> 30 µg/mL	C=C(C)Cn1cnc2cc(C)c(C)cc21
> 46.4 µg/mL	CCc1ccc(C(CC(=O)O)N2Cc3ccccc3C2=O)cc1 (centres undefined)
> 63.5 µg/mL	O=C(CCNS(=O)(=O)c1ccccc1C(F)(F)F)NCCCN1CCOCC1

solubility kinetic	SMILES
5 µg/mL (≈ 16.9 µM)	CCOC(=O)c1sc(NC(=O)C2CCCCC2)nc1C
29.7 µg/mL (≈ 110 µM)	Nc1ncccc1OCc1ccc(Cl)c(Cl)c1
0.4 µg/mL (≈ 1.1 µM)	Cn1c(=O)[nH]c(=O)c2c1nc1n2CC(COc2ccc3ccccc3c2)O1 (centres undefined)
43.2 µg/mL (≈ 141 µM)	CCNC(C(=O)c1c[nH]c2c(CC)cccc12)c1ccccc1 (centres undefined)
> 40.3 µg/mL	CC1(C)Cc2sc3c(=O)[nH]c(=S)[nH]c3c2CO1
41.1 µg/mL (≈ 111 µM)	Cc1ccc(S(C)(=O)=NC(=O)NC(=O)c2c(F)cccc2Cl)cc1 (centres undefined)
> 55 µg/mL	CC1CCCN(S(=O)(=O)c2cccc(C(=O)NCC3CCCO3)c2)C1 (centres undefined)
13.5 µg/mL (≈ 55.9 µM)	O=C(Nc1ccc(F)c(Cl)c1)C1CCCC1
> 50.6 µg/mL	O=C(COc1ccc2ccc(=O)oc2c1)NC1CCS(=O)(=O)C1 (centres undefined)
42.1 µg/mL (≈ 144 µM)	O=c1[nH]c(-c2ccccc2)c(-c2ccccc2)nc1[N+](=O)[O-]
> 44.7 µg/mL	O=C(NCc1ccccc1)C(=O)Nc1cccc(C(=O)O)c1
> 38.4 µg/mL	COc1cccc(C(C)NC(=O)c2ccncc2)c1 (centres undefined)
30.6 µg/mL (≈ 123 µM)	COc1cc(CN2CCCCCC2)cc(OC)c1
28.6 µg/mL (≈ 67.4 µM)	CC1(C)Cc2c(c(N3CCCC3)nc3sc4c(N5CCNCC5)ncnc4c23)CO1
> 53 µg/mL	COc1ccc(-n2c(C)c(C)c3c(NCCCN(C)C)ncnc32)cc1
7.6 µg/mL (≈ 17.7 µM)	CCc1ccccc1NC(=O)CNC(=O)c1ccc(OCc2cn3ccccc3n2)cc1
> 66.4 µg/mL	C[C@H](NS(=O)(=O)c1ccc(F)cc1)C(=O)OCC(=O)c1c(N)n(C)c(=O)n(C)c1=O
46.2 µg/mL (≈ 127 µM)	CCCCC1C2C(=O)N(c3ccc(C)cc3)C(=O)C2ON1c1ccccc1 (centres undefined)
4 µg/mL (≈ 14.5 µM)	N#Cc1ncn(-c2ccc(Oc3ccccc3)cc2)c1N
0.9 µg/mL (≈ 2.8 µM)	COC(=O)c1ccc(S(=O)(=O)c2ccc([N+](=O)[O-])cc2)cc1

solubility kinetic	SMILES
> 39 µg/mL	O=C(N/N=C/c1cccnc1)c1ccccc1Cl
4.9 µg/mL (≈ 15.7 µM)	CCN(c1ccccc1)S(=O)(=O)c1ccc2ccccc2c1
< 0.7 µg/mL	COc1ccccc1C1CCN(Cc2cccc3ccccc23)CC1
> 46 µg/mL	Cc1ccc(-c2nc(NCCN(C)C)c3ccccc3n2)cc1
> 51.7 µg/mL	Cc1ccnc(SC2CC(=O)N(c3ccc([N+](=O)[O-])cc3)C2=O)n1 (centres undefined)
> 39 µg/mL	NC(=O)NNC(=S)Nc1cccc2ccccc12
44.2 µg/mL (≈ 131 µM)	CNC(=O)c1cccc2cccc(Sc3ccccc3C(=O)O)c12
61.7 µg/mL (≈ 141 µM)	O=C(COC(=O)CNC(=O)c1cc(Cl)cc([N+](=O)[O-])c1)NC(=O)NCc1ccco1
24.6 µg/mL (≈ 76.1 µM)	CCOc1ccc(NC(=S)Nc2cccc3cnccc23)cc1
> 45.8 µg/mL	COc1cccc(/C=C/C(=O)N2CC(C)OC(C)C2)c1OC (centres undefined)
> 39.1 µg/mL	CCNCc1cc([N+](=O)[O-])ccc1OCC.Cl
44.4 µg/mL (≈ 137 µM)	CNC(=S)N1CCN(CCNC2=CC(=O)CC(C)(C)C2)CC1
> 29.8 µg/mL	Nc1nc(Cl)cc(N2CCCC2)n1
42.5 µg/mL (≈ 130 µM)	COC(=O)c1sccc1NC(=S)N1CCC(C(N)=O)CC1
> 35.9 µg/mL	CC(C)N=C(Nc1cccnc1)c1ccccc1
> 47.1 µg/mL	O=C(COC(=O)c1cc(Cl)ccc1O)NCC1CCCO1 (centres undefined)
> 54.2 µg/mL	O=C(NCCc1ccco1)c1ccc(OCc2cn3ccccc3n2)cc1
7.8 µg/mL (≈ 23.1 µM)	O=C(COC(=O)c1ccccc1O)NCCc1c[nH]c2ccccc12

SMILES	solubility kinetic
COCCNC(=O)CN1C2CCC1CC(O)(c1cccnc1)C2 (centres undefined)	> 47.9 µg/mL

Reference: PubChem BioAssay AID1996
